Reference: patent US20240270821A1, “GIP/GLP1/GCG TRI-RECEPTOR AGONISTS AND USES THEREOF” (priority 2023, published 2024)
Where two headings read alike, the source gives them in different places. Starred links: 1 amine or outer side, 2 acyl side, 3 side chain; linkers in the order of their positions; H or OH if unused. Non-standard residues stand in square brackets, D forms with d. Residues, ends and D or L forms follow the SMILES beside them. Groups on a side chain read outwards from the residue. No end group written: not given here. *: point of attachment. Phe(4-NO2) = N[C@@H](Cc1ccc([N+](=O)[O-])cc1)C(=O)O; C20 diacid = O=C(O)CCCCCCCCCCCCCCCCCCC(=O)*; C18 diacid = O=C(O)CCCCCCCCCCCCCCCCC(=O)*; αMePhe(2-F) = C[C@](N)(Cc1ccccc1F)C(=O)O; γGlu = O=C(O)[C@H](CCC(=O)[*:2])N[*:1]; αMe4Pal = C[C@](N)(Cc1ccncc1)C(=O)O; αMeY = C[C@](N)(Cc1ccc(O)cc1)C(=O)O; 4Pal = N[C@@H](Cc1ccncc1)C(=O)O; αMeL = CC(C)C[C@](C)(N)C(=O)O; αMeS = C[C@](N)(CO)C(=O)O; Orn = NCCC[C@H](N)C(=O)O; AEEA = NCCOCCOCC(=O)O; Aib = CC(C)(N)C(=O)O

Key:
Type in all cases: cell-based
hGLP-1R [1] = target: T1, hGLP-1R (Homo sapiens, UniProt P43220); experiment: Functional cAMP activation in the presence of 0.1% casein (no HSA); details: read-out: Relative cAMP EC50, hGLP-1R;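 also: intracellular cAMP rise after 30 min at 37 °C read by HTRF, normalized between buffer only (0%) and maximal control ligand (100%), four-parameter variable-slope fit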
hGcgR = hGcgR (Homo sapiens, UniProt P47871); experiment: as above; details: read-out: Relative cAMP EC50, hGcgR;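 also: intracellular cAMP rise after 30 min at 37 °C, read by HTRF against a cAMP standard curve, scaled from buffer only (0%) to maximal control ligand response (100%)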
hGLP-1R [2] = target: T1, hGLP-1R; experiment: Functional cAMP activity in the presence of 1% HSA; details: read-out: cAMP Rel EC50, hGLP-1R
hGIPR [3] = target: T2, hGIPR (Homo sapiens, UniProt P48546); experiment: Functional cAMP activity in the presence of 1% HSA; details: read-out: cAMP Rel EC50, hGIPR
T2 sequence (P48546 22-466): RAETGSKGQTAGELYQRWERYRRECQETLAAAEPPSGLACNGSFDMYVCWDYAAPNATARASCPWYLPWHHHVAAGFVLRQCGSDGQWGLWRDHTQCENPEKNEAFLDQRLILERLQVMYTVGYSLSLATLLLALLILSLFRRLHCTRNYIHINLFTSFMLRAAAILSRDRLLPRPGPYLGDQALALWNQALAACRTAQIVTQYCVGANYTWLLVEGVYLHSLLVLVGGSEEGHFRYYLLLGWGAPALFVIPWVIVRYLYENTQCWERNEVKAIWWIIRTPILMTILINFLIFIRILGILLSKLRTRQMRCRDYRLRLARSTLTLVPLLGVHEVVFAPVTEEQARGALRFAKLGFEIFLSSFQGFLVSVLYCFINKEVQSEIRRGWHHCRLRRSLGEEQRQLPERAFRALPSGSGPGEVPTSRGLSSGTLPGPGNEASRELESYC

hGIPR [4] = target: T2, hGIPR; experiment: Functional cAMP activation in the presence of 0.1% casein (no HSA); details: read-out: Relative cAMP EC50, hGIPR;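 as to Relative cAMP EC50, hGIPR: intracellular cAMP rise after 30 min at 37 °C read by HTRF against a standard curve, scaled between buffer alone (0%) and top control ligand concentration (100%), four-parameter fit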;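 as to Relative cAMP EC50, hGcgR: intracellular cAMP rise after 30 min at 37 °C, read by HTRF against a cAMP standard curve, scaled from buffer only (0%) to maximal control ligand response (100%)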
Procedure: After a 30-minute incubation at 37° C., the resulting increase in intracellular cAMP is quantitatively determined using the CisBio CAMP Dynamic 2 HTRF Assay Kit (62AM4PEJ). Briefly, cAMP levels within the cell are detected by adding the cAMP-d2 conjugate in cell lysis buffer followed by the antibody anti-cAMP-Eu^3+-Cryptate, also in cell lysis buffer.
Intracellular cAMP levels are determined by extrapolation using a standard curve. Dose response curves of compounds are plotted as the percentage of stimulation normalized to minimum (buffer only) and maximum (maximum concentration of each control ligand) values and analyzed using a four parameter non-linear regression fit with a variable slope (Genedata Screener 13). EC50 is the concentration of compound causing half-maximal simulation in a dose response curve. Each relative EC50 value for the Geometric mean calculation is determined from a curve fitting.

human GcgR = human GcgR (Homo sapiens, UniProt P47871); experiment: Functional cAMP activity in the presence of 1% HSA; details: read-out: cAMP Rel EC50, hGcgR
[5] = in the presence of 0.1% casein (no HSA), geometric mean
[6] = in the presence of 0.1% casein (no HSA), geometric mean of relative EC50
[7] = HEK-293 clonal cell line, 1% HSA, geometric mean of relative EC50

T1 sequence (P43220 24-463): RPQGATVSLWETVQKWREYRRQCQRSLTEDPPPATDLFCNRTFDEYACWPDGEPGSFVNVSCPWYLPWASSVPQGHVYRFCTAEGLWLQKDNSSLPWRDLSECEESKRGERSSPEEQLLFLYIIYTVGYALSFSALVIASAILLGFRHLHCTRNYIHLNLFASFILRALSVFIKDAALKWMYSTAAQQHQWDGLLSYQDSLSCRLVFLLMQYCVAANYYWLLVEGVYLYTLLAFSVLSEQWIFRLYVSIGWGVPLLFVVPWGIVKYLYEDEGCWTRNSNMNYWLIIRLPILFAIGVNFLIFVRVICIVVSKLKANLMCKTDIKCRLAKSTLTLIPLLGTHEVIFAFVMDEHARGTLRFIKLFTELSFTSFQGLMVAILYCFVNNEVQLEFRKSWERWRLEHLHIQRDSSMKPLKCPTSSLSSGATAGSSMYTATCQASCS
Chain of human GcgR (P47871 26-477): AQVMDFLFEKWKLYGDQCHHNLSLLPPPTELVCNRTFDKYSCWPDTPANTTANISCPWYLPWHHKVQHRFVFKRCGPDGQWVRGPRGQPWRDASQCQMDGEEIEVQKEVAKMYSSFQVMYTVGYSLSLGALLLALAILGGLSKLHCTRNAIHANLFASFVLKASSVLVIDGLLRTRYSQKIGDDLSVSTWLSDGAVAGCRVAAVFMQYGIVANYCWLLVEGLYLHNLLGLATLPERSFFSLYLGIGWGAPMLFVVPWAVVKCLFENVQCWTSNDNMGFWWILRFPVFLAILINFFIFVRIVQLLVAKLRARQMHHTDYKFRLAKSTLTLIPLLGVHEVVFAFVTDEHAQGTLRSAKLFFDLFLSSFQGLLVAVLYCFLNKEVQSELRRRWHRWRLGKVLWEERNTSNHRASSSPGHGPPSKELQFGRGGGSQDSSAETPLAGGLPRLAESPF
Chain of hGcgR (P47871 26-477): as above

Molecule | EC50 (hGLP-1R [1]; [5]) [nM] | EC50 (hGcgR; [5]) [nM] | EC50 (hGLP-1R [2]) [nM] | EC50 (hGIPR [3]) [nM] | EC50 (hGIPR [4]; [5]) [nM] | EC50 (human GcgR) [nM] | EC50 (hGLP-1R [1]) [nM] | EC50 (hGcgR) [nM] | EC50 (hGIPR [4]) [nM] | EC50 (hGLP-1R [1]; [6]) [nM] | EC50 (hGcgR; [6]) [nM] | EC50 (hGLP-1R [2]; [7]) [nM] | EC50 (hGIPR [3]; [7]) [nM] | EC50 (hGIPR [4]; [6]) [nM] | EC50 (human GcgR; [7]) [nM]
CC[C@H](C)[C@H](NC(=O)[C@H](Cc1ccccc1)NC(=O)[C@H](C)NC(=O)C(C)(C)NC(=O)[C@H](CCC(N)=O)NC(=O)[C@H](C)NC(=O)[C@H](CCCCNC(=O)COCCOCCNC(=O)CC[C@H](NC(=O)CCCCCCCCCCCCCCCCC(=O)O)C(=O)O)NC(=O)[C@H](CCCCN)NC(=O)[C@H](CC(=O)O)NC(=O)[C@H](CC(C)C)NC(=O)[C@](C)(CC(C)C)NC(=O)[C@H](CCCN)NC(=O)[C@H](CO)NC(=O)[C@H](Cc1ccccc1)NC(=O)[C@H](CC(=O)O)NC(=O)[C@H](CO)NC(=O)[C@@H](NC(=O)[C@H](Cc1ccccc1)NC(=O)[C@@H](NC(=O)CNC(=O)[C@H](CCC(N)=O)NC(=O)C(C)(C)NC(=O)[C@@H](N)Cc1ccc(O)cc1)[C@@H](C)O)[C@@H](C)O)C(=O)N[C@@H](CCC(=O)O)C(=O)N[C@@H](Cc1ccc(O)cc1)C(=O)N[C@@H](CC(C)C)C(=O)N[C@@H](CC(C)C)C(=O)N[C@@H](CCC(=O)O)C(=O)N[C@H](C)C(=O)NCC(=O)N[C@@H](Cc1ccncc1)C(=O)N[C@@H](CO)C(=O)N[C@@H](CO)C(=O)NCC(=O)N[C@@H](C)C(=O)N1CCC[C@H]1C(=O)N1CCC[C@H]1C(=O)N1CCC[C@H]1C(=O)N[C@@H](CO)C(=O)NCC(=O)N[C@@H](CCC(=O)O)C(N)=O [Example 252] | 3.54 | 2.61 | 504 | 24.8 | 0.147 | 528 |  |  |  |  |  |  |  |  | 
H-Y[Aib]QGT[αMePhe(2-F)]TSD[4Pal]SI[αMeL]LD[Orn]K([γGlu-γGlu-C18 diacid])AQ[αMe4Pal][Orn]FI[dE]YLIEGGPSSGEPPPEGT-NH2 [Example 541] |  |  | 38.7 | 1.28 |  | 520 | 0.74 | 4.26 | 0.0213 |  |  |  |  |  | 
H-Y[Aib]QGTFTSD[4Pal]SQ[αMeL]LDKK([AEEA-γGlu-C18 diacid])AQ[αMe4Pal]AFIEYLIE[Aib]GPSSGAPPPSGSEE-NH2 [Example 897] | 3.29 | 3.62 | 557 | 25.9 | 0.157 | 658 |  |  |  |  |  |  |  |  | 
H-Y[Aib]QGTFTSD[4Pal]SK[αMeL]LDKK([AEEA-γGlu-C18 diacid])AQ[αMe4Pal]AFIE[αMe4Pal]LIE[Aib]GPSSGAPPPSGS-NH2 [Example 916] | 1.38 | 1.09 | 166 | 4.78 | 0.0715 | 158 |  |  |  |  |  |  |  |  | 
H-Y[Aib]QGT[αMePhe(2-F)]TSDYSI[αMeL]LDKK([AEEA-γGlu-C18 diacid])AQ[Aib]AFIEYLLETGPSSGAPPPSEG-NH2 [Example 417] |  |  |  |  |  |  |  |  |  | 0.328 | 2.83 | 67 | 4.46 | 0.0144 | 386
H-Y[Aib]QGT[αMePhe(2-F)]TSD[4Pal]SI[αMeL]LD[Orn]K([AEEA-γGlu-C18 diacid])AQ[αMe4Pal][Orn]FI[dE][αMeY]LIEGGPSSGEPPPESE-NH2 [Example 677] |  |  | 20.8 | 1.03 |  | 190 | 0.252 | 2.21 | 0.0111 |  |  |  |  |  | 
H-Y[Aib]QGTFTSD[4Pal]S[Orn][αMeL]LDKK([AEEA-γGlu-C18 diacid])AQ[Aib]AFIEYLLE[dA]GPSS[Aib]APPPSGT-NH2 [Example 275] | 4.93 | 7.8 | 692 | 27.7 | 0.318 | 882 |  |  |  |  |  |  |  |  | 
Y[Aib]QGT[αMePhe(2-F)]TSD[4Pal][αMeS]I[αMeL]LD[Orn]K([γGlu-γGlu-C18 diacid])AQ[αMe4Pal]EFI[dE][αMeY]LVEGGPSSGEPPPSGSEE-NH2 [Example 740] |  |  | 29.7 | 0.629 |  | 181 | 0.453 | 5.34 | 0.012 |  |  |  |  |  | 
Y[Aib]QGTFTSD[4Pal]SQ[αMeL]LD[Orn]K([γGlu-γGlu-C18 diacid])AQ[αMe4Pal]AFIEYLIE[Aib]GPSSGAPPPSGS-NH2 [Example 935] | 1.71 | 4.04 | 172 | 16.9 | 0.123 | 659 |  |  |  |  |  |  |  |  | 
H-Y[Aib]QGTFTSD[4Pal]SQ[αMeL]LDKK([dE-dE-γGlu-C18 diacid])AQ[αMe4Pal]AFIEYLIE[Aib]GPSSGAPPPSGS-NH2 [Example 921] | 3.73 | 10.4 | 261 | 12.4 | 0.228 | 2130 |  |  |  |  |  |  |  |  | 
Y[Aib]QGT[αMePhe(2-F)]TSD[4Pal]SI[αMeL]LD[Orn]K([AEEA-γGlu-C18 diacid])AQ[αMe4Pal][Orn]FI[dE][αMeY]LIEGGPSSGEPPPEGTE-NH2 [Example 679] |  |  | 21.6 | 1.02 |  | 188 | 0.255 | 3.22 | 0.0123 |  |  |  |  |  | 
CC[C@H](C)[C@H](NC(=O)[C@H](Cc1ccccc1)NC(=O)[C@H](C)NC(=O)C(C)(C)NC(=O)[C@H](CCC(N)=O)NC(=O)[C@H](C)NC(=O)[C@H](CCCCNC(=O)COCCOCCNC(=O)CC[C@H](NC(=O)CCCCCCCCCCCCCCCCC(=O)O)C(=O)O)NC(=O)[C@H](CCCCN)NC(=O)[C@H](CC(=O)O)NC(=O)[C@H](CC(C)C)NC(=O)[C@](C)(CC(C)C)NC(=O)[C@@H](NC(=O)[C@H](CO)NC(=O)[C@H](Cc1ccc([N+](=O)[O-])cc1)NC(=O)[C@H](CC(=O)O)NC(=O)[C@H](CO)NC(=O)[C@@H](NC(=O)[C@](C)(Cc1ccccc1F)NC(=O)[C@@H](NC(=O)CNC(=O)[C@H](CCC(N)=O)NC(=O)C(C)(C)NC(=O)[C@@H](N)Cc1ccc(O)cc1)[C@@H](C)O)[C@@H](C)O)[C@@H](C)CC)C(=O)N[C@@H](CCC(=O)O)C(=O)N[C@@H](Cc1ccc(O)cc1)C(=O)N[C@@H](CC(C)C)C(=O)N[C@@H](CCC(=O)O)C(=O)N[C@@H](CCC(=O)O)C(=O)NCC(=O)NCC(=O)N1CCC[C@H]1C(=O)N[C@@H](CO)C(=O)N[C@@H](CO)C(=O)NCC(=O)N[C@@H](C)C(=O)N1CCC[C@H]1C(=O)N1CCC[C@H]1C(=O)N1CCC[C@H]1C(=O)N[C@@H](CCC(=O)O)C(N)=O [Example 495] (H-Y[Aib]QGT[αMePhe(2-F)]TSD[Phe(4-NO2)]SI[αMeL]LDKK([AEEA-γGlu-C18 diacid])AQ[Aib]AFIEYLEEGGPSSGAPPPE-NH2) |  |  | 53.8 | 5.74 |  | 205 | 0.274 | 1.75 | 0.0361 |  |  |  |  |  | 
H-Y[Aib]QGTFTSDFS[Orn][αMeL]LDKK([AEEA-γGlu-C18 diacid])AQ[Aib]AFIEYLLE[Aib]GESSGAPPPSGS-NH2 [Example 240] | 3.62 | 2.02 | 396 | 10.4 | 0.214 | 521 |  |  |  |  |  |  |  |  | 
H-Y[Aib]QGT[αMePhe(2-F)]TSD[4Pal][αMeS]I[αMeL]LD[Orn]K([γGlu-γGlu-C18 diacid])AQ[αMe4Pal]EFI[dE][αMeY]LVEGGPSSGEPPPSGTGE-NH2 [Example 738] |  |  | 28.2 | 0.64 |  | 162 | 0.368 | 1.87 | 0.00991 |  |  |  |  |  | 
H-Y[Aib]QGTFTSDYSI[αMeL]LDKQAAK([AEEA-AEEA-γGlu-C20 diacid])QFIEWLIEGGPSSGEPPPGEG-NH2 [Example 318] | 0.698 | 5.03 | 111 | 52.8 | 0.378 | 1970 |  |  |  |  |  |  |  |  | 
